Data published in article PMC4515248 (Applied Biochemistry and Biotechnology, 2015).

Molecular target: T1, CuCDH (Cerrena unicolor, UniProt S5R9V1)
T1 construct: native secreted intact flavocytochrome (heme b plus FAD domains) purified from culture supernatant; signal peptide (18 aa) removed; precursor 771 aa
Test: UV-visible spectrum of purified enzyme
Type: binding
Details: 100 mM sodium acetate, pH 4.5; oxidized and lactose-reduced

T1 sequence (S5R9V1 19-771): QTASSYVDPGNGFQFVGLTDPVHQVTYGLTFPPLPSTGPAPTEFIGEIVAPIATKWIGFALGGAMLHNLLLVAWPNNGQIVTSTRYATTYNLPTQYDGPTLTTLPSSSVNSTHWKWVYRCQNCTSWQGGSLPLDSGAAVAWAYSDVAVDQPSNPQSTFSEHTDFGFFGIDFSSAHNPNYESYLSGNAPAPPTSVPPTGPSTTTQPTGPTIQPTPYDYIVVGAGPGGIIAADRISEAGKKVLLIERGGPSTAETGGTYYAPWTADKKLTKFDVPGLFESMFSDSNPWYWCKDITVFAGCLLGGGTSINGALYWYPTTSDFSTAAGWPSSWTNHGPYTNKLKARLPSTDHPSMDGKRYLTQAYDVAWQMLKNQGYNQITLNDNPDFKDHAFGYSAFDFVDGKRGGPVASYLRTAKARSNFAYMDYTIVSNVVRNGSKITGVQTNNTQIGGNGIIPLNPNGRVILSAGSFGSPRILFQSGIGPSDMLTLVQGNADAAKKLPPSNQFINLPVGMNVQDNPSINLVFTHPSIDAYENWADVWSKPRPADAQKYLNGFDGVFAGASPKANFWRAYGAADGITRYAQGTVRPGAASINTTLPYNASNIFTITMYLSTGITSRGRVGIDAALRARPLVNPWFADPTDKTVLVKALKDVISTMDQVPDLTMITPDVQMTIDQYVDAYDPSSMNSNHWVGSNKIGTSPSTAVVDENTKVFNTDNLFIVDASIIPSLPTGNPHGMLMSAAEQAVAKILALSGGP

SMILES: Cc1cc2nc3c(=O)[nH]c(=O)nc-3n(C[C@H](O)[C@H](O)[C@H](O)COP(=O)(O)OP(=O)(O)OC[C@H]3O[C@@H](n4cnc5c(N)ncnc54)[C@H](O)[C@@H]3O)c2cc1C [FAD]
- UV-visible spectrum of purified enzyme: indicated the presence of heme and flavin cofactors in the protein
